Assay results reported in patent publication US6426339B1, “Formulations and methods for providing prolonged local anesthesia” (Children's Medical Center Corporation, priority 1996, dated 2002).
“Also recorded” adds a separate entry of the source.

Assays:
[1] = tested on: sciatic nerve; assay: Sensory block: additives in the injection fluid with bupivacaine microspheres (Table 2); assay type: in vivo, rat; settings: for sensory blockade latency: with bupivacaine microspheres, FIG. 5A
Procedure: Sensory anesthesia was measured by the time required for each rat to withdraw its hind paw from a 56° C. plate (IITC Life Science Instruments, Model 35-D, Woodland Hills, Calif.). The rats were allowed to adjust to their surroundings in a quiet room for at least 30 minutes before testing. The rats were held with a cloth gently. wrapped above their waist to restrain the upper extremities and obstruct vision. The rats were positioned to stand with one hind paw on a hot plate and the other on a room temperature plate. With a computer data collection system to (Apple IIe with a footpad switch), latency to withdraw each hind paw to the hot plate was recorded by alternating paws and allowing at least fifteen seconds of recovery between each measurement. If no withdrawal occurred from the hot plate within 12 seconds, the trial was terminated to prevent injury and the termination time was recorded. Testing ended after five measurements per side, the high and low points were disregarded, and the mean of the remaining three points was calculated for each side. Animals were handled in accordance with institutional, state and federal guidelines.
(§1) At least five rats were used in each test.
(§2) Sensory blockade or anesthesia effect was examined using art-known techniques. In addition, motor tests were performed at each time point to examined each rat's ability to hop and to place weight on it's hind leg by art-known techniques. Each leg was tested three times, and the latency of the contralateral leg was tested to provide a control. The animals were handled and cared for according to institution, state, and federal regulations.

[2] = tested on: sciatic nerve; assay: Motor block: additives in the injection fluid with bupivacaine microspheres (Table 2); assay type: in vivo, rat
Excerpt: The rats were behaviorally tested for sensory and motor anesthesia in a quiet observation room. Testing was only performed in rats showing appropriate baseline hot plate latencies after at least-one week of testing. In all testing conditions, the experimenter recording the behavior was unaware of the side containing the local anesthetic. To assess motor anesthesia, a 4-point scale based on visual observation was devised: (1) normal appearance, (2) intact dorsiflexion of foot with an impaired ability to splay toes when elevated by the tail, (3) toes and foot remained plantar flexed with no splaying ability, and (4) loss of dorsiflexion, flexion of toes, and impairment of gait. For graphing clarity, partial motor anesthesia equals a score of 2 and dense motor anesthesia is a score of either 3 or 4.
as §1, §2

[3] = 0.05% in the suspending medium
Procedure: Male Sprague-Dawley Charles River Rats, weighing between 200 and 350 grams were used to test the ability of each additive to prolong blockade or anesthesia effect. 150 mg of bupivacaine per kg of rat and a known concentration of each of the additives were placed in 0.6 mls of injection vehicle (5 g/L medium molecular weight carboxymethylcellulose, 1 g/L Tween 80). If the additive was a solid, it was dissolved in ethanol and aliquots which varied in concentrations from 0.0220 mg/kg of rat, and added to the injection fluid. If the additive was in liquid form, it was added directly to the injection fluid. The microsphere/additive mixture was vortexed (Scientific Industries Vortex Genie®) at maximum speed for three minutes prior to injection. The injection was performed while the rats were under general anesthetic, by locating the greater trochanter and injecting slightly below and proximal to it. At least five rats were used in each test.

[4] = tested on: sciatic nerve; assay: Sciatic blockade by liquid bupivacaine and/or dexamethasone in solution (Table 1); assay type: in vivo, rat
Procedure: as §1, §2

[5] = tested on: sciatic nerve; assay: Restoration of waning sensory anesthesia by dexamethasone (hot plate latency); assay type: in vivo, rat; settings: 0.032 mg/kg injected at the original site 6 hours after bupivacaine microspheres
Procedure: Sensory anesthesia was measured by the time required for each rat to withdraw its hind paw from a 56° C. plate (IITC Life Science Instruments, Model 35-D, Woodland Hills, Calif.). The rats were allowed to adjust to their surroundings in a quiet room for at least 30 minutes before testing. The rats were held with a cloth gently. wrapped above their waist to restrain the upper extremities and obstruct vision. The rats were positioned to stand with one hind paw on a hot plate and the other on a room temperature plate. With a computer data collection system to (Apple IIe with a footpad switch), latency to withdraw each hind paw to the hot plate was recorded by alternating paws and allowing at least fifteen seconds of recovery between each measurement. If no withdrawal occurred from the hot plate within 12 seconds, the trial was terminated to prevent injury and the termination time was recorded. Testing ended after five measurements per side, the high and low points were disregarded, and the mean of the remaining three points was calculated for each side. […]
Sensory latency was determined by the hot plate foot withdrawal method described above. […]

[6] = additive 0.032 mg/Kg rat with bupivacaine microspheres
[7] = additive 0.25 mg/Kg rat with bupivacaine microspheres
[8] = additive 0.8 mg/Kg rat with bupivacaine microspheres
[9] = additive 2.0 mg/Kg rat with bupivacaine microspheres
[10] = in the suspending medium with bupivacaine microspheres
[11] = additive 0.1 mg/Kg rat with bupivacaine microspheres
[12] = additive 3.1 mg/Kg rat with bupivacaine microspheres
[13] = additive 0.01 mg/Kg rat with bupivacaine microspheres
[14] = additive 0.125 mg/Kg rat with bupivacaine microspheres
[15] = additive 1.25 mg/Kg rat with bupivacaine microspheres
[16] = additive 10 mg/Kg rat with bupivacaine microspheres
[17] = additive 6.3 mg/Kg rat with bupivacaine microspheres
[18] = additive 2.1 mg/Kg rat with bupivacaine microspheres
[19] = additive 20 mg/Kg rat with bupivacaine microspheres
[20] = additive 1.0 mg/Kg rat with bupivacaine microspheres
[21] = additive 1.7 mg/Kg rat with bupivacaine microspheres
[22] = additive 0.02 mg/Kg rat with bupivacaine microspheres
[23] = additive 0.14 mg/Kg rat with bupivacaine microspheres

C[C@H]1C[C@H]2[C@@H]3CCC4=CC(=O)C=C[C@]4(C)[C@@]3(F)[C@@H](O)C[C@]2(C)[C@@]1(O)C(=O)CO [Betamethasone, betamethasone]
Sensory block [1, 6]: 19.0 ± 4.0 h
Sensory block [1, 7]: 36.0 ± 10.0 h
Sensory block [1, 8]: 46.0 ± 7.0 h
Sensory block [1, 9]: 44.0 ± 13.0 h
duration of prolonged blockade or local anesthesia effect [1, 10]: up to 45 hours
Motor block [2, 6]: 15.0 ± 4.0 h
Motor block [2, 7]: 38.0 ± 11.0 h
Motor block [2, 8]: 39.0 ± 5.0 h
Motor block [2, 9]: 39.0 ± 11.0 h

CC(C)CCC[C@@H](C)[C@H]1CC[C@H]2[C@@H]3CC=C4C[C@@H](O)CC[C@]4(C)[C@H]3CC[C@]12C [Cholesterol]
prolongation of blockade compared with bupivacaine microspheres (in words) ([1]; 0.3 mg/kg incorporated into bupivacaine loaded microspheres): did not result in a prolongation of blockade or anesthesia effect
Sensory block [1, 11]: 4.0 ± 0.4 h
Sensory block [1, 12]: 8.0 ± 3.0 h
Motor block [2, 11]: 4.0 ± 1.0 h
Motor block [2, 12]: 5.0 ± 1.0 h

CNC[C@H](O)c1ccc(O)c(O)c1 [Epinephrine]
Sensory block [1, 13]: 12.0 ± 6.0 h
Sensory block [1, 11]: 14.0 ± 5.0 h
degree of prolongation of blockade (in words) [1, 10]: did not substantially prolong
Motor block [2, 13]: 12.0 ± 4.0 h
Motor block [2, 11]: 11.0 ± 3.0 h
systemic toxicity (in words) [3]: considerable systemic toxicity, but no deaths

C[C@]12CC[C@@H]3c4ccc(O)cc4CC[C@H]3[C@@H]1CC[C@@H]2O [Estradiol]
Sensory block [1, 14]: 11.0 ± 6.0 h
Sensory block [1, 15]: 8.0 ± 1.0 h
degree of prolongation of blockade (in words) [1, 10]: no blockade-prolonging effect
Motor block [2, 14]: 12.0 ± 6.0 h
Motor block [2, 15]: 9.0 ± 2.0 h

C[C@]12CCC(=O)C=C1CC[C@@H]1[C@@H]2[C@@H](O)C[C@@]2(C)[C@H]1CC[C@]2(O)C(=O)CO [Hydrocortisone, hydrocortisone]
Sensory block [1, 11]: 10.0 ± 3.0 h
Sensory block [1, 15]: 15.0 ± 5.0 h
Sensory block [1, 16]: 36.0 ± 10.0 h
degree of prolongation of blockade (in words) [1, 10]: mild, but statistically significant prolongation; also recorded: cannot be made as effective as dexamethasone
Motor block [2, 11]: 10.0 ± 3.0 h
Motor block [2, 15]: 16.0 ± 3.0 h
Motor block [2, 16]: 31.0 ± 8.0 h

O=C(c1ccccc1)c1ccc2n1CCC2C(=O)O (stereo not shown) [Ketoralac]
Sensory block [1, 9]: 6.0 ± 0.7 h
Sensory block [1, 17]: 8.0 ± 2.0 h
Motor block [2, 9]: 7.0 ± 0.4 h
Motor block [2, 17]: 10.0 ± 4.0 h

C[C@H]1C[C@@H]2[C@H]([C@@H](O)C[C@@]3(C)[C@H]2CC[C@]3(O)C(=O)CO)[C@@]2(C)C=CC(=O)C=C12 [Methylprednisolone, methylprednisolone]
Sensory block [1, 11]: 20.0 ± 5.0 h
Sensory block [1, 18]: 28.0 ± 6.0 h
Sensory block [1, 19]: 34.0 ± 11.0 h
Motor block [2, 11]: 13.0 ± 4.0 h
Motor block [2, 18]: 28.0 ± 5.0 h
Motor block [2, 19]: 33.0 ± 9.0 h

CC(=O)[C@H]1CC[C@H]2[C@@H]3CCC4=CC(=O)CC[C@]4(C)[C@H]3CC[C@]12C [Progesterone]
Sensory block [1, 9]: 8.0 ± 1.0 h
Motor block [2, 9]: 6.0 ± 1.0 h

C[C@]12CC[C@H]3[C@@H](CCC4=CC(=O)CC[C@@]43C)[C@@H]1CC[C@@H]2O [Testosterone]
Sensory block [1, 20]: 7.0 ± 2.0 h
Sensory block [1, 21]: 15.0 ± 5.0 h
degree of prolongation of blockade (in words) [1, 10]: mild prolongation
Motor block [2, 20]: 6.0 ± 1.0 h
Motor block [2, 21]: 15.0 ± 5.0 h

CCCCN1CCCCC1C(=O)Nc1c(C)cccc1C (stereo not shown) [bupivacaine]
LENGTH OF Blockade or anesthesia effect ([4]; bupivacaine 3 mg/kg rat, no dexamethasone): 2 to 3 h
effect on duration of blockade obtained using bupivacaine microspheres (in words) ([1]; addition of 0.005% (w/w) to the suspending medium): did not result in a prolongation

C[C@@H]1C[C@H]2[C@@H]3CCC4=CC(=O)C=C[C@]4(C)[C@@]3(F)[C@@H](O)C[C@]2(C)[C@@]1(O)C(=O)CO [dexamethasone]
LENGTH OF Blockade or anesthesia effect ([4]; bupivacaine 3 mg/kg rat plus dexamethasone 0.16 mg/kg rat): 2 to 3 h
LENGTH OF Blockade or anesthesia effect ([4]; bupivacaine 3 mg/kg rat plus dexamethasone 1.6 mg/kg rat): 2 to 3 h
LENGTH OF Blockade or anesthesia effect ([4]; dexamethasone 0.16 mg/kg rat, no bupivacaine): 0 h
Sensory block [1, 22]: 17.0 ± 11.0 h
Sensory block [1, 23]: 47.0 ± 8.0 h
Sensory block [1, 9]: 36.0 ± 19.0 h
sensory blockade latency ([1]; after 50 hours): about 7 seconds
sensory blockade latency ([1]; after 100 hours): about 2.5 seconds
sensory blockade latency ([1]; initial): 12 s
Motor block [2, 22]: 19.0 ± 8.0 h
Motor block [2, 23]: 38.0 ± 5.0 h
Motor block [2, 9]: 34.0 ± 12.0 h
hot plate sensory latency after restoration [5]: about 11 sec
